Structures are written as SMILES. Like-named read-outs stand apart in the source and are kept apart here.

This note sets out measurements from US5407950A, “Arylalkanoylamine derivative and drug containing the same” (priority 1990, dated 1995).

Data set [1] concerns the target T1, prolyl endopeptidase from canine brain (Canis lupus familiaris, UniProt A0A8I3N6C8).
T1 construct: A prolyl endopeptidase was prepared from canine brains; from tissue; host or cells: canine brain
Nature of the data set: Inhibitory activity against prolyl endopeptidase from brain (Test Example 1). Format: biochemical. Here is the method:
Following buffer solutions A and B were used for the measurement.
Buffer A: 20 mM Tris-HCl buffer (pH 7.0)
Buffer B: Buffer A containing 0.1% gelatin, 1 mM EDTA, 1 mM 2-mercaptoethanol.
Dilution of the prolyl endopeptidase preparation with Buffer B to a concentration of 0.4 units/ml was done, and the resulting solution was defined as enzyme solution. To 940 μl of Buffer A was added 50 μl of the enzyme solution, followed by incubating at 37° C. for 10 minutes, to which was added 10 μl of a solution of a sample compound dissolved in dimethyl sulfoxide, and stirred and mixed together, followed by staying at 37° C. for ten minutes. To the mixture was added 100 μl of carbobenzoxyglycylprolyl p-nitroanilide dissolved in 40% dioxane to a final concentration of 2.5 mM, for reaction at 37° C. for 10 minutes, to which was added 100 μl of 50% acetic acid containing 10% Triton X-100, thereby terminating the reaction.
For controls, dimethyl sulfoxide was added at the same amount (10 μl) instead of the solution of the sample compound; for blind tests, dimethyl sulfoxide and Buffer B were added instead of a sample compound and the enzyme solution, respectively, at the same amounts for effecting the same procedure.

Another data set deals with ICR male mice. Nature of the data set: Anti-hypoxic activity (Test Example 2), survival time under 4% O2 / 96% N2. Type of data set: in vivo. As to conditions: 100 mg/kg, intraperitoneal, 30 min before gas; control = 100. The method, then: Groups of ICR male mice (Charles River Co.), age 4 to 5 weeks, each group consisting of 10 mice and each mouse having been fasted for 24 hours, were used for the test. Mice were placed in a transparent desiccator (diameter: 19 cm, height: 30 cm) made of synthetic resin and having 2 valves, one at the upper portion and the other at the lower portion, for replacing the gas therein. […] The time measured was taken as the survival time.
Each tested compound suspended in an solvent was intraperitoneally administered 30 minutes before the start of the mixed gas feeding. A group of mice to which only the solvent was intraperitoneally administered was used as a control.
The anti-hypoxic activity was determined according to the following equation: [formula]

For a further data set, the system named is ICR mice. Description: Toxicity test; Parenteral administration (Test Example 4). Format: in vivo. The settings on record: 300 mg/kg parenteral, 7 days observation. Here is the method: Test Example 4 (Toxicity test; Parenteral administration)
Ten ICR mice (Charles River, Co.), male, aged 4 to 5 weeks, were employed per group. The compounds of Examples 1, 5, 8 and 12 were separately suspended in 10% gum arabic, and then, they were individually administered parenterally at a dose of 300 mg/kg for subsequent observation for 7 days. As a result, no death was counted under the above conditions.

The test system of the next data set is Male ICR mice. Description: Toxicity test; Oral administration (Test Example 5). As to conditions: 1,000 mg/kg oral, 7 days observation. Format: in vivo. Here is the method: Test Example 5 (Toxicity test; Oral administration)
Five male ICR mice (Charles River, Co.) of age 5 weeks, were employed per group. The compound of Example 22 was suspended in a solvent, which was then administered orally at a dose of 1,000 mg/kg for subsequent observation for 7 days. As a result, no death was counted under the above conditions.

[2] abbreviates: canine brain enzyme, carbobenzoxyglycylprolyl p-nitroanilide substrate, 37° C., pH 7.0, read-out: Inhibition Potency IC50.

T1 sequence (A0A8I3N6C8 1-710): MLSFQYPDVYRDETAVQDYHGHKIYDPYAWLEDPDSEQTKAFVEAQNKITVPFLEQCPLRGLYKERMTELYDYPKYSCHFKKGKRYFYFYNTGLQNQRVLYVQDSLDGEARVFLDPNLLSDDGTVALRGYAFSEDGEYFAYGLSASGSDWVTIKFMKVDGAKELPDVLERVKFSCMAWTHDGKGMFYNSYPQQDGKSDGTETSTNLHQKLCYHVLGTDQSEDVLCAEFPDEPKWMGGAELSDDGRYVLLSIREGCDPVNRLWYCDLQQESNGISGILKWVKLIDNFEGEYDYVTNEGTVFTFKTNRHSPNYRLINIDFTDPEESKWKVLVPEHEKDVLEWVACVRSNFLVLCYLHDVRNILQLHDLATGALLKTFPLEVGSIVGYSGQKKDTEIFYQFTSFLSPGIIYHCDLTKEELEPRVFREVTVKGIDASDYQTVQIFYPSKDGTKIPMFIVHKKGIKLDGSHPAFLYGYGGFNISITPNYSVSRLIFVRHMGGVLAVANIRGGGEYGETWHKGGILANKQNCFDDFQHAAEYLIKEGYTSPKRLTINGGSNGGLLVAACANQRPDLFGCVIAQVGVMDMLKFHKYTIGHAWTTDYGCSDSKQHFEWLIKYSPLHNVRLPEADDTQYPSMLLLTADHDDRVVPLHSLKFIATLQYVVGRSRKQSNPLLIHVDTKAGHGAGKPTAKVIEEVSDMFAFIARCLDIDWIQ

The term IC50 denotes the concentration that gives 50% inhibition. As to `COc1ccc(C(=O)N2CCCC2=O)cc1` [Aniracetam, reference compound], the concentration for half-maximal inhibition (IC50) in data set [1] is > 1000 µM. Also, the “Anti-hypoxic Activity” value in the data set with ICR male mice was found to be 115%.

With `O=C([C@@H]1CSCN1C(=O)CC1Cc2ccccc2C1)N1CCC[C@H]1CO` [Example 1, 1-[3-(Indan-2-ylacetyl)-L-thioprolyl]-L-prolinol], the “death within 7 days (parenteral)” value in the data set on ICR mice was “no death”.

`O=C[C@@H]1CCCN1C(=O)[C@@H]1CSCN1C(=O)CC1Cc2ccccc2C1` [Example 2, 1-[3-(Indan-2-ylacetyl)-L-thioprolyl]-L-prolinal]: in the data set with ICR male mice, the “Anti-hypoxic Activity” value amounted to 120%.

As to `O=C([C@@H]1CSCN1C(=O)C[C@H]1CCc2ccccc2C1)N1CSC[C@H]1CO` [Example 5, 3-[3-((S)-1,2,3,4-tetrahydronaphthalen 2-ylacetyl)-L-thioprolyl]-L-thioprolinol], the “Anti-hypoxic Activity” value in the data set on ICR male mice worked out at 115%. The “death within 7 days (parenteral)” value in the data set on ICR mice is reported as “no death”.

Regarding `O=C([C@@H]1CCCN1C(=O)c1cc2ccccc2o1)N1CCC[C@H]1CO` [Example 6, 1-[1-(benzofuran-2-ylcarbonyl)-L-prolyl]-L-prolinol], the “Anti-hypoxic Activity” value in the data set with ICR male mice is on record as 128%.

Regarding `O=C[C@@H]1CSCN1C(=O)[C@@H]1CCCN1C(=O)CC1Cc2ccccc2C1` [Example 8, 3-[1-(indan-2-ylacetyl)-L-prolyl]-L-thioprolinal], the half-inhibitory concentration (IC50) in data set [1] (setting [2]) came to 0.0012 µM. The “Anti-hypoxic Activity” value in the data set on ICR male mice came out at 120%. Further, the “death within 7 days (parenteral)” value in the data set with ICR mice is recorded as “no death”.

With `O=C[C@@H]1CCCN1C(=O)[C@@H]1CSCN1C(=O)C[C@H]1CCc2ccccc2C1` [Example 9, 1-[3-((S)-1,2,3,4-tetrahydronaphthalen-2-ylacetyl)-L-thioprolyl]-L-prolinal], in the data set on ICR male mice, the “Anti-hypoxic Activity” value was 123%. In the data set with Male ICR mice, the “death within 7 days (oral)” value was “no death”.

For the compound `O=C[C@@H]1CSCN1C(=O)[C@@H]1CSCN1C(=O)C[C@H]1CCc2ccccc2C1` [Example 10, 3-[3-((S)-1,2,3,4-tetrahydronaphthalen-2-ylacetyl)-L-thioprolyl]-L-thioprolinal], in data set [1] (setting [2]), the IC50 was 0.0014 µM. Besides, the “Anti-hypoxic Activity” value in the data set with ICR male mice is reported as 129%.

Take `O=C[C@@H]1CCCN1C(=O)[C@@H]1CCCN1C(=O)c1cc2ccccc2o1` [Example 11, 1-[1-(benzofuran-2-ylcarbonyl)-L-prolyl]-L-prolinal]: in data set [1] (setting [2]), the IC50 is 0.069 µM.

In the case of `O=C[C@@H]1CSCN1C(=O)[C@@H]1CCCN1C(=O)c1cc2ccccc2o1` [Example 12, 3-[1-(benzofuran-2-ylcarbonyl)-L-prolyl]-L-thioprolinal], the “death within 7 days (parenteral)” value in the data set with ICR mice was “no death”.

Take `O=C([C@@H]1CSCN1C(=O)C[C@H]1CCc2ccccc2C1)N1CCC[C@H]1C=NO` [Example 25, (2S)-1-[3-((S)-1,2,3,4-Tetrahydronaphthalen-2-ylacetyl)-L-thioprolyl]-2-pyrrolidine aldoxime]: the IC50 in data set [1] (setting [2]) was 0.016 µM.
